Legend:
Type in all cases: cell-based
CFTR ΔF508 mutant [1] = target: T1, CFTR ΔF508 mutant (Homo sapiens, UniProt P13569, DEL508-508); test: YFP-halide influx assay for the CFTR-ΔF508 mutation, gluconate buffer; details: CFBE41o- cells, forskolin 10.67 μM
T1 construct: expressed in transfected cells; host or cells: CFBE41o- (adenoviral transduction)
Method in brief: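 Channel opening is read as the fall in YFP fluorescence over 7 s following iodide injection, expressed as 1-F/F0 and plotted versus compound concentration to derive EC50. Cells used were CFBE41o- expressing adenoviral ΔF508 CFTR and halide-sensitive YFP, rescued by 24 h at 27 °C or 24 h modulator treatment at 37 °C.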

CFTR ΔF508 mutant [2] = target: T1, CFTR ΔF508 mutant; test: YFP-halide influx assay for the CFTR-ΔF508 mutation, PBS buffer (96 well); details: CFBE41o- cells, forskolin 10.67 μM
Method in brief: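 CFBE41o- cells were adenovirally transduced with CFTR ΔF508 and YFP H148Q/I152L, then incubated 24 h at 27 °C or with a CFTR modulator at 37 °C. I⁻-induced fluorescence quenching was recorded over 7 s after injection; response expressed as 1−F/F0, with EC50 from concentration plots.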

CFTR ΔF508 mutant [3] = target: T1, CFTR ΔF508 mutant; test: YFP-halide influx assay for the CFTR-ΔF508 mutation (384 well, FDSS/μCell); details: CFBE41o- cells, CFTR-ΔF508, 1×D-PBS, fluorescence after 36 seconds
Method in brief: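 Potentiator read-out as 1−F/F0, F taken 36 s after iodide addition, EC50 fitted against compound concentration. Cells: CFBE41o- expressing ΔF508 CFTR plus halide-sensitive YFP via adenovirus, rescued by 27 °C for 24 h or 24 h modulator at 37 °C.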

CFTR G551D mutant = target: T2, CFTR G551D mutant (Homo sapiens, UniProt P13569, G551D); test: YFP-halide influx assay for the CFTR-G551D mutation; details: HEK293 cells, forskolin 10.67 μM
T2 construct: expressed in transfected cells; host or cells: HEK293 (reverse transfection with plasmid)
Method in brief: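 Channel opening potentiation measured as 1−F/F0, where F is YFP fluorescence 7 s after iodide injection and F0 before; EC50 taken from concentration plot. Cells: HEK293 transiently expressing CFTR G551D plus halide-sensitive YFP (H148Q, I152L, F47L), 24 h at 37 °C, 5% CO2.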

T2 sequence (P13569 whole entry G551D): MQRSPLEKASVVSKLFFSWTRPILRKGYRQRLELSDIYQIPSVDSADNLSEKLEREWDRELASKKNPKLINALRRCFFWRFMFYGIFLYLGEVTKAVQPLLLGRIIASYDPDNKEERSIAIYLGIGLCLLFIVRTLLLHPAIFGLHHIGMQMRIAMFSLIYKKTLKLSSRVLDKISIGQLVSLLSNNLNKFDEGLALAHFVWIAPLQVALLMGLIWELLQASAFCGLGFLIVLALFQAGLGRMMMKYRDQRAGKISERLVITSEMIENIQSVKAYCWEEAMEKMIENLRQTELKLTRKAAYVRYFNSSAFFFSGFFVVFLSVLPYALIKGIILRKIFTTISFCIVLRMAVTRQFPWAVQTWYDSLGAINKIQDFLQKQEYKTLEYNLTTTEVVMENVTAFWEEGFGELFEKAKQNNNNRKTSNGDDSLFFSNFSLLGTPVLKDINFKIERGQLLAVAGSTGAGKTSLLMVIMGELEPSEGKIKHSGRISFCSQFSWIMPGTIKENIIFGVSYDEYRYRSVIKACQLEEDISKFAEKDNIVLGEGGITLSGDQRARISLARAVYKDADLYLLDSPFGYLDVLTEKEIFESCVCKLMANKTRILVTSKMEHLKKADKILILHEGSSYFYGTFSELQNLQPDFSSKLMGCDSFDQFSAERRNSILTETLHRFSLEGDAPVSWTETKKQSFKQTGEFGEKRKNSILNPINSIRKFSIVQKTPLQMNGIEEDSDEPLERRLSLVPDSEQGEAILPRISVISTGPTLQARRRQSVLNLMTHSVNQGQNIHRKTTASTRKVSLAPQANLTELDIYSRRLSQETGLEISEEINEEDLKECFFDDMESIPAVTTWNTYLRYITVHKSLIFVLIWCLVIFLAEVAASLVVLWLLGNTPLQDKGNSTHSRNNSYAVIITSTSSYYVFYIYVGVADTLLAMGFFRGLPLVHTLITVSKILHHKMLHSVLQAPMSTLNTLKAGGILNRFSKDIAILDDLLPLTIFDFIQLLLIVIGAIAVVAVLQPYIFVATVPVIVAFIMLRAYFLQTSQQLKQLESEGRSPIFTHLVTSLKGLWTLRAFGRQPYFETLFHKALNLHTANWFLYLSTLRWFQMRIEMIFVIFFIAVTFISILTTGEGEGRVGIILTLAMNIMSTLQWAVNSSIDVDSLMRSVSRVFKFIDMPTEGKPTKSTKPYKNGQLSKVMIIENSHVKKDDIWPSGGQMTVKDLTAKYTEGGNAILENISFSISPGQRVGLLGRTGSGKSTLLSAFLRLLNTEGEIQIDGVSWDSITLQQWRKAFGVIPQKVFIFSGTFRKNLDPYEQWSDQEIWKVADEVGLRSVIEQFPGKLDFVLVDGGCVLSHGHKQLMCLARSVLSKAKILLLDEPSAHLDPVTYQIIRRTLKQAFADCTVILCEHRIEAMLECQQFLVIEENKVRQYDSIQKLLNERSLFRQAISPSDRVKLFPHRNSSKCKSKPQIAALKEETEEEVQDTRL
T1 sequence (P13569 with tags, fused parts or gaps DEL508-508): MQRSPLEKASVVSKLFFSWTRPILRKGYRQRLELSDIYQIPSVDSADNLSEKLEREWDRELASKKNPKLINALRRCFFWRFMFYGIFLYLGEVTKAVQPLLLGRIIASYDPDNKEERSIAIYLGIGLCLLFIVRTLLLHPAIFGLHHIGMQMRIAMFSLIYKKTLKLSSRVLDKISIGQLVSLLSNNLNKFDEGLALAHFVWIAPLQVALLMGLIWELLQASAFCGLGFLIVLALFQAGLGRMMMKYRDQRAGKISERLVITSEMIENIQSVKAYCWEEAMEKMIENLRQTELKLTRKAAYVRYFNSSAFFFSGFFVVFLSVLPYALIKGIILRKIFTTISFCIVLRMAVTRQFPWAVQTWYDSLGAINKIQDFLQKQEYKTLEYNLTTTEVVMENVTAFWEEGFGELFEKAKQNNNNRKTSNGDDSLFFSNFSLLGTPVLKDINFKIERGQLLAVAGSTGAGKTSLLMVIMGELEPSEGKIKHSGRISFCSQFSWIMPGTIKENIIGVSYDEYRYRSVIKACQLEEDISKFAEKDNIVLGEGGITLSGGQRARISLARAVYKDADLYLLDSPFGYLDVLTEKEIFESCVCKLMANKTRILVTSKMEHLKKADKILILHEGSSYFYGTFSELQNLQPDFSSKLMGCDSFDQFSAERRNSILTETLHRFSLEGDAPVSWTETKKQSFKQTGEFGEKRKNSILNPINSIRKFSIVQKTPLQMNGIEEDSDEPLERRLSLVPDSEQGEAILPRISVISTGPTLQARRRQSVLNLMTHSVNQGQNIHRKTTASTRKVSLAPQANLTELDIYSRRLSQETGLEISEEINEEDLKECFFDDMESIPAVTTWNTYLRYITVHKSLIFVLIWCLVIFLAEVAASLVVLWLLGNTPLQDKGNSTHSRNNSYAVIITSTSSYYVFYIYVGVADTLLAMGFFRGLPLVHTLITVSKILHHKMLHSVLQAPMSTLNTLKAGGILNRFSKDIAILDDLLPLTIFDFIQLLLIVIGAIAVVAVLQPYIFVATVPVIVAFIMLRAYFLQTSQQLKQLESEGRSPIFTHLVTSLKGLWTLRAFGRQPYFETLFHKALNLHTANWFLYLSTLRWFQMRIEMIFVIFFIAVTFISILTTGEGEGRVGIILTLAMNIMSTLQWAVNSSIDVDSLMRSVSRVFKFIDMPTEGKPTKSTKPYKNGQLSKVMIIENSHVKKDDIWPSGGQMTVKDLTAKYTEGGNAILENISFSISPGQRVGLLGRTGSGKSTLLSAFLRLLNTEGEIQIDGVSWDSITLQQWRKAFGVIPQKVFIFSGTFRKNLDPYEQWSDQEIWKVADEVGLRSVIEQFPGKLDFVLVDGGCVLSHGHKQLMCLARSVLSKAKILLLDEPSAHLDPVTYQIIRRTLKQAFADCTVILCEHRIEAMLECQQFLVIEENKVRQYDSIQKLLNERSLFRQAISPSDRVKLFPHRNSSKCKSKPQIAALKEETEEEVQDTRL

SMILES | EC50 (CFTR ΔF508 mutant [1]) | EC50 (CFTR ΔF508 mutant [2]) | EC50 (CFTR ΔF508 mutant [3]) | EC50 (CFTR G551D mutant)
NC(=O)c1cc(S(=O)(=O)N2CCOCC2)sc1NC(=O)c1ccccc1C(F)(F)F [Compound 78, 5-(morpholinosulfonyl)-2-(2-(trifluoromethyl)benzamido)thiophene-3-carboxamide] | 401 nM | 220 nM | 146 nM | 3070 nM
CC(C)(C)C(=O)Nc1sc(S(=O)(=O)c2cccc(F)c2)cc1C(N)=O [Compound 122, 5-(3-fluorophenylsulfonyl)-2-pivalamidothiophene-3-carboxamide] | 293 nM | 114 nM | 68.4 nM | 5680 nM
NC(=O)c1cc(S(=O)(=O)N2CC=C(C(F)(F)F)CC2)sc1NC(=O)c1ccccc1F [Compound 158, 2-(2-fluorobenzamido)-5-(4-(trifluoromethyl)-5,6-dihydropyridin-1(2H)-ylsulfonyl)thiophene-3-carboxamide] | 50.5 nM | 35.5 nM | 79.5 nM | 1870 nM
COc1ccc(CN(C)S(=O)(=O)c2cc(C(N)=O)c(NC(=O)c3cc[nH]n3)s2)cc1F [Compound 160, N-(3-carbamoyl-5-(N-(3-fluoro-4-methoxybenzyl)-N-methylsulfamoyl)thiophen-2-yl)-1H-pyrazole-3-carboxamide] | 48.4 nM | 38.7 nM | 210 nM | 272 nM
COc1ccc(CN(C)S(=O)(=O)c2cc(C(N)=O)c(NC(=O)c3cc[nH]n3)s2)cc1 [Compound 171, N-(3-carbamoyl-5-(N-(4-methoxybenzyl)-N-methylsulfamoyl)thiophen-2-yl)-1H-pyrazole-3-carboxamide] | 104 nM | 37.5 nM | 81.4 nM | 756 nM
CN(Cc1ccc(C(F)(F)F)cc1)S(=O)(=O)c1cc(C(N)=O)c(NC(=O)c2cc[nH]n2)s1 [Compound 175, N-(3-carbamoyl-5-(N-methyl-N-(4-(trifluoromethyl)benzyl)sulfamoyl)thiophen-2-yl)-1H-pyrazole-3-carboxamide] | 106 nM | 61.7 nM | 96.8 nM | 527 nM
CC(C)c1ccccc1S(=O)(=O)c1cc(C(N)=O)c(NC(=O)c2ccccc2F)s1 [Compound 179, 2-(2-fluorobenzamido)-5-(2-isopropylphenylsulfonyl) thiophene-3-carboxamide] | 22.2 nM | 31.2 nM | 84.9 nM | 332 nM
CC1(C)CN(S(=O)(=O)c2cc(C(N)=O)c(NC(=O)c3ccccc3F)s2)C1 [Compound 183, 5-(3,3-dimethylazetidin-1-ylsulfonyl)-2-(2-fluorobenzamido)thiophene-3-carboxamide] | 153 nM | 25.7 nM | 12.7 nM | 526 nM
CN(CC(C)(C)C)S(=O)(=O)c1cc(C(N)=O)c(NC(=O)c2cc[nH]n2)s1 [Compound 192, N-(3-carbamoyl-5-(N-methyl-N-neopentylsulfamoyl)thiophen-2-yl)-1H-pyrazole-3-carboxamide] | 60.6 nM | 33.4 nM | 20.7 nM | 298 nM
CN(CCC(F)(F)F)S(=O)(=O)c1cc(C(N)=O)c(NC(=O)c2cc[nH]n2)s1 [Compound 194, N-(3-carbamoyl-5-(N-methyl-N-(3,3,3-trifluoropropyl)sulfamoyl)thiophen-2-yl)-1H-pyrazole-3-carboxamide] | 154 nM | 38.3 nM | 20.7 nM | 185 nM
CC1(C)CN(S(=O)(=O)c2cc(C(N)=O)c(NC(=O)c3cc[nH]n3)s2)C1 [Compound 206, N-(3-carbamoyl-5-(3,3-dimethylazetidin-1-ylsulfonyl)thiophen-2-yl)-1H-pyrazole-3-carboxamide] | 72.6 nM | 31.4 nM | 6.9 nM | 134 nM
CN(Cc1ccncc1)S(=O)(=O)c1cc(C(N)=O)c(NC(=O)c2cc[nH]n2)s1 [Compound 207, N-(3-carbamoyl-5-(N-methyl-N-(pyridin-4-ylmethyl)sulfamoyl)thiophen-2-yl)-1H-pyrazole-3-carboxamide] | 317 nM | 125 nM | 48.1 nM | 442 nM
CN(C1CC1)S(=O)(=O)c1cc(C(N)=O)c(NC(=O)c2cc[nH]n2)s1 [Compound 209, N-(3-carbamoyl-5-(N-cyclopropyl-N-methylsulfamoyl)thiophen-2-yl)-1H-pyrazole-3-carboxamide] | 73.9 nM | 34.5 nM | 6 nM | 314 nM
NC(=O)c1cc(S(=O)(=O)N2CCOCC2)sc1NC(=O)c1c(O)cc(F)cc1F [Compound 212, 2-(2,4-difluoro-6-hydroxybenzamido)-5-(morpholinosulfonyl) thiophene-3-carboxamide] | 184 nM | 70.3 nM |  | 
NC(=O)c1cc(S(=O)(=O)N2CCC(F)(F)CC2)sc1NC(=O)C1(O)CCC1 [Compound 213, 5-(4,4-difluoropiperidin-1-ylsulfonyl)-2-(1-hydroxycyclobutanecarboxamido) thiophene-3-carboxamide] | 87.3 nM | 118 nM | 52.8 nM | 541 nM
NC(=O)c1cc(S(=O)(=O)N2CCC(F)(F)CC2)sc1NC(=O)c1c(O)cc(F)cc1F [Compound 214, 2-(2,4-difluoro-6-hydroxybenzamido)-5-(4,4-difluoropiperidin-1-ylsulfonyl) thiophene-3-carboxamide] | 117 nM | 37.2 nM | 25.8 nM | 
CC(C)c1cc(C(=O)Nc2sc(S(=O)(=O)N3CCC(F)(F)CC3)cc2C(N)=O)c(O)c(C(C)C)c1 [Compound 215, 5-(4,4-difluoropiperidin-1-ylsulfonyl)-2-(2-hydroxy-3,5-diisopropylbenzamido) thiophene-3-carboxamide] | 292 nM | 862 nM |  | 
Cc1cccc(C(=O)Nc2sc(S(=O)(=O)N3CCOCC3)cc2C(N)=O)c1O [Compound 216, 2-(2-hydroxy-3-methylbenzamido)-5-(morpholinosulfonyl) thiophene-3-carboxamide] | 709 nM | 216 nM |  | 
CC(C)(CO)C(=O)Nc1sc(S(=O)(=O)N2CCC(F)(F)CC2)cc1C(N)=O [Compound 217, 5-(4,4-difluoropiperidin-1-ylsulfonyl)-2-(3-hydroxy-2,2-dimethylpropanamido) thiophene-3-carboxamide] | 195 nM | 164 nM |  | 
CN(CC1CC1)S(=O)(=O)c1cc(C(N)=O)c(NC(=O)c2ccccc2F)s1 [Compound 218, 5-(N-(cyclopropylmethyl)-N-methylsulfamoyl)-2-(2-fluorobenzamido) thiophene-3-carboxamide] | 196 nM | 72.7 nM |  | 410 nM
CC(C)(O)C(=O)Nc1sc(S(C)(=O)=O)cc1C(N)=O [Compound 219, 2-(2-hydroxy-2-methylpropanamido)-5-(methylsulfonyl) thiophene-3-carboxamide] | > 1000 nM | > 1000 nM |  | 
CC(C)S(=O)(=O)c1cc(C(N)=O)c(NC(=O)C(C)(C)O)s1 [Compound 220, 2-(2-hydroxy-2-methylpropanamido)-5-(isopropylsulfonyl) thiophene-3-carboxamide] | > 1000 nM | 2310 nM |  | 
CC(C)(O)C(=O)Nc1sc(S(=O)(=O)c2ccc(F)cc2)cc1C(N)=O [Compound 221, 5-(4-fluorophenylsulfonyl)-2-(2-hydroxy-2-methylpropanamido) thiophene-3-carboxamide] | 110 nM | 49.4 nM | 26.1 nM | 1160 nM
Cc1cc(F)ccc1S(=O)(=O)c1cc(C(N)=O)c(NC(=O)C2(O)CC2)s1 [Compound 222, 5-(4-fluoro-2-methylphenylsulfonyl)-2-(1-hydroxycyclopropanecarboxamido) thiophene-3-carboxamide] | 22.9 nM | 26.1 nM | 33.2 nM | 583 nM
NC(=O)c1cc(S(=O)(=O)c2ccc(F)cc2)sc1NC(=O)c1ccccc1O [Compound 223, 5-(4-fluorophenylsulfonyl)-2-(2-hydroxybenzamido) thiophene-3-carboxamide] | 37.9 nM | 31.8 nM | 62.1 nM | 327 nM
NC(=O)c1cc(S(=O)(=O)c2ccc(F)cc2)sc1NC(=O)C1(O)CC1 [Compound 224, 5-(4-fluorophenylsulfonyl)-2-(1-hydroxycyclopropanecarboxamido) thiophene-3-carboxamide] | 103 nM | 54.1 nM | 35 nM | 511 nM
NC(=O)c1cc(S(=O)(=O)c2ccc(F)cc2)sc1NC(=O)C1(O)CCC1 [Compound 226, 5-(4-fluorophenylsulfonyl)-2-(1-hydroxycyclobutanecarboxamido) thiophene-3-carboxamide] | 42.2 nM | 36.9 nM | 33.8 nM | 540 nM

From patent US9382254B2, “Compounds and pharmaceutical compositions thereof for the treatment of cystic fibrosis” (Galapagos NV, priority 2013, dated 2016)
